Values quoted from earlier work in patent US20040197402A1, “Oxcarbazepine dosage forms” (priority 2001, published 2004).

Details: background statement

With NC(=O)N1c2ccccc2CC(=O)c2ccccc21 [Oxcarbazepine, 10, 11-dihydro-10-oxo-5H-dibenz [b,f], azepine-5-carboxamide] as the compound, how does the solubility in water read?
Its solubility in water is “poor solubility in water”.
